Data on 13 compounds can be found in patent US8980830B2 (priority 2007, dated 2015).

Bridge positions count the residues as written; N and C are the ends. Square brackets hold non-standard residues; d marks the D form. Side chains are listed from the residue outwards. Ends that are not written are not given here. Peptide text beside a SMILES is read from it. PhLac = O=C(O)[C@@H](O)Cc1ccccc1

By EC50 is commonly meant the midpoint of the concentration-response curve.

Series [1] is described as follows: Glucagon solubility assay. To be noted: Table 10.
Series [2] has as its target T1, Glucagon Receptor (Homo sapiens, UniProt P47871). Description: cAMP inhibition: antagonism of glucagon-induced cAMP at glucagon receptor. It is filed as cell-based. The arrangement: expressed in transfected cells; host or cells: HEK293.
The target of series [3] is T1, Glucagon Receptor. Description: Glucagon receptor binding assay (scintillation proximity competition binding). (SPA uses beads or plates that emit light when radiolabelled molecules are held near them.)
The target in series [4] is GLP-1 Receptor (Homo sapiens, UniProt P43220). Description: Functional assay, cAMP induction (luciferase reporter, HEK293) at GLP-1 receptor. It is filed as cell-based. (In general: A reporter such as luciferase makes a cellular process visible.)
Sequence of GLP-1 Receptor (P43220 24-463): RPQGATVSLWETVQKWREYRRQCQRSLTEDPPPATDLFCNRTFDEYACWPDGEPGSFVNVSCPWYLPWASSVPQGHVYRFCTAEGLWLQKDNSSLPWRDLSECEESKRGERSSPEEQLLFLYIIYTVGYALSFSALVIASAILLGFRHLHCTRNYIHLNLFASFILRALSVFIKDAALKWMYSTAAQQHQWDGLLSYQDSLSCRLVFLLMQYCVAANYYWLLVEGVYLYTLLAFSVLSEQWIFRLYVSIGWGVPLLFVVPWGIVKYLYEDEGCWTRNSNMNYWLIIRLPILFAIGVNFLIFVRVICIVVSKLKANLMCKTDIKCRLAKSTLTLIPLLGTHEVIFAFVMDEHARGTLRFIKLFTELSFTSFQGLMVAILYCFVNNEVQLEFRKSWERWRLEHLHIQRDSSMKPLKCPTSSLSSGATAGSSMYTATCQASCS
[5] abbreviates: read-out: IC50 (nM) (Receptor binding), Table 12.
Setting [6] is: Table 7, average ±STD, at least three experiments.

T1 sequence (P47871 26-477): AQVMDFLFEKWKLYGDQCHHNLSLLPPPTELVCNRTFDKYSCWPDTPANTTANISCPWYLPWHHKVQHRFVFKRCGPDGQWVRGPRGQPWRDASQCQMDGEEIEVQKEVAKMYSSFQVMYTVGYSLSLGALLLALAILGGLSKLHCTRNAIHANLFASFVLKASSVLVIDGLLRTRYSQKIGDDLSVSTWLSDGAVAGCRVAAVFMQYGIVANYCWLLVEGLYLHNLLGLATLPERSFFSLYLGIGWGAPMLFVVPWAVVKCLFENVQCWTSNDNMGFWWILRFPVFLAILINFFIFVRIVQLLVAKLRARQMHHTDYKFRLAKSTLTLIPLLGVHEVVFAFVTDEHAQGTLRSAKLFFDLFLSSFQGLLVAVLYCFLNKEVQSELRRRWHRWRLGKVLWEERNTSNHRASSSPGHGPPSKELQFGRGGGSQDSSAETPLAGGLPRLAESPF

Consider `CSCC[C@H](NC(=O)[C@H](CC(C)C)NC(=O)[C@H](Cc1c[nH]c2ccccc12)NC(=O)[C@H](CCC(N)=O)NC(=O)[C@@H](NC(=O)[C@H](Cc1ccccc1)NC(=O)[C@H](CC(=O)O)NC(=O)[C@H](CCC(N)=O)NC(=O)[C@H](C)NC(=O)[C@H](CCCNC(=N)N)NC(=O)[C@H](CCCNC(=N)N)NC(=O)[C@H](CO)NC(=O)[C@H](CC(=O)O)NC(=O)[C@H](CC(C)C)NC(=O)[C@H](Cc1ccc(O)cc1)NC(=O)[C@H](CCCCN)NC(=O)[C@H](CO)NC(=O)[C@H](Cc1ccc(O)cc1)NC(=O)[C@H](CCC(=O)O)NC(=O)[C@H](CO)NC(=O)[C@@H](NC(=O)[C@@H](O)Cc1ccccc1)[C@@H](C)O)C(C)C)C(=O)N[C@@H](CC(N)=O)C(=O)N[C@H](C(=O)NCC(=O)N1CCC[C@H]1C(=O)N[C@@H](CO)C(=O)N[C@@H](CO)C(=O)NCC(=O)N[C@@H](C)C(=O)N1CCC[C@H]1C(=O)N1CCC[C@H]1C(=O)N1CCC[C@H]1C(=O)N[C@@H](CO)C(N)=O)[C@@H](C)O` [[PLA^6, E^9]Glucagon (aa6-29 + CEX)-NH2] (H-[PhLac]TSEYSKYLDSRRAQDFVQWLMNTGPSSGAPPPS-NH2), for which the “Solubility (%, pH 6-8)” value in series [1] was determined as 16%.
On to “[d-Cys^5(20kDaPEG), E^9]Glucagon(aa5-29)-NH2 ([dC](PEG 20 kDa)FTSEYSKYLDSRRAQDFVQWLMNT-NH2)”, for which the IC50 is 14800 nM in series [2] (read-out: IC50 (nM) (cAMP, inhibit 0.2 mM Glucagon), Table 12, inhibit 0.2 mM Glucagon) and greater than 10000 nM in series [3] (setting [5]).
In the case of “[C^8(20kDaPEG), E^9]Glucagon(aa6-29)-NH2 (FTC(PEG 20 kDa)EYSKYLDSRRAQDFVQWLMNT-NH2)”, in series [2] (Table 12), the “IC50 (nM) (cAMP, inhibit 0.2 mM Glucagon)” value is given as “no antagonism”. In series [3] (setting [5]), the IC50 is greater than 1000 nM.
Take “[E^9, C^11(20kDaPEG)]Glucagon(aa6-29)-NH2 (FTSEYC(PEG 20 kDa)KYLDSRRAQDFVQWLMNT-NH2)”: the “IC50 (nM) (cAMP, inhibit 0.2 mM Glucagon)” value in series [2] (Table 12) was “no antagonism”. Moreover, the IC50 in series [3] (setting [5]) is greater than 1000 nM.
In series [4] (GLP-1 agonism EC50 (nM), Table 18), `CSCC[C@H](NC(=O)[C@H](CC(C)C)NC(=O)[C@H](Cc1c[nH]c2ccccc12)NC(=O)[C@H](CCC(N)=O)NC(=O)[C@@H](NC(=O)[C@H](Cc1ccccc1)NC(=O)[C@H](CC(=O)O)NC(=O)[C@@H]1CCCCNC(=O)CC[C@H](NC(=O)[C@H](CC(=O)O)NC(=O)[C@H](CC(C)C)NC(=O)[C@H](Cc2ccc(O)cc2)NC(=O)[C@H](CCCCN)NC(=O)[C@H](CO)NC(=O)[C@H](Cc2ccc(O)cc2)NC(=O)[C@H](CCC(=O)O)NC(=O)[C@H](CO)NC(=O)[C@@H](NC(=O)[C@H](Cc2ccccc2)NC(=O)[C@@H](NC(=O)CNC(=O)[C@H](CCC(=O)O)NC(=O)[C@H](C)NC(=O)[C@@H](N)Cc2c[nH]cn2)[C@@H](C)O)[C@@H](C)O)C(=O)N[C@@H](CCCNC(=N)N)C(=O)N[C@@H](CCCNC(=N)N)C(=O)N[C@@H](C)C(=O)N1)C(C)C)C(=O)N[C@@H](CC(=O)O)C(=O)N[C@H](C(N)=O)[C@@H](C)O` [[A2E3, E16K20(Lactam), D28]G(1 ~ 29)] registered an EC50 of 0.11 nM. The compound further yielded an IC50 in series [2] (Glucagon antagonism IC50 (nM, inhibit 0.2-0.8 nM glucagon), Table 18) of 129 ± 106 nM. Besides, the “character of antagonism (partial antagonist, wrapped cell)” value in series [2] (Table 18), in series [2] (Table 19) and in series [2] (Table 20) was “partial” each time.
For `CSCC[C@H](NC(=O)[C@H](CC(C)C)NC(=O)[C@H](Cc1c[nH]c2ccccc12)NC(=O)[C@H](CCC(N)=O)NC(=O)[C@@H](NC(=O)[C@H](Cc1ccccc1)NC(=O)[C@H](CC(=O)O)NC(=O)[C@@H]1CCCCNC(=O)CC[C@H](NC(=O)[C@H](CC(=O)O)NC(=O)[C@H](CC(C)C)NC(=O)[C@H](Cc2ccc(O)cc2)NC(=O)[C@H](CCCCN)NC(=O)[C@H](CO)NC(=O)[C@H](Cc2ccc(O)cc2)NC(=O)[C@H](CCC(=O)O)NC(=O)[C@H](CO)NC(=O)[C@@H](NC(=O)[C@H](Cc2ccccc2)NC(=O)[C@@H](NC(=O)CN)[C@@H](C)O)[C@@H](C)O)C(=O)N[C@@H](CCCNC(=N)N)C(=O)N[C@@H](CCCNC(=N)N)C(=O)N[C@@H](C)C(=O)N1)C(C)C)C(=O)N[C@@H](CC(=O)O)C(=O)N[C@H](C(N)=O)[C@@H](C)O` [[E9, E16K20(lactam), D28]G(4 ~ 29)] (H-GTFTSEYSKYLDERRAKDFVQWLMDT-NH2; lactam 13-17; N-terminus assumed), the midpoint of the response in series [4] (GLP-1 agonism EC50 (nM), Table 19), the EC50, lay at 151 ± 8.8 nM. The IC50 is 10 to 30 nM in series [2] (Glucagon IC50 (nM), Table 14) and 12.7 ± 1.1 nM in series [2] (Glucagon antagonism IC50 (nM, inhibit 0.8 nM glucagon), Table 19).
As for “[E^9, C^24 (20kDaPEG)]Glucagon(aa6-29)-NH2 (FTSEYSKYLDSRRAQDFVC(PEG 20 kDa)WLMNT-NH2)”, the “IC50 (nM) (cAMP, inhibit 0.2 mM Glucagon)” value in series [2] (Table 12) is recorded as “no antagonism”. In addition, the IC50 is greater than 1000 nM in series [3] (setting [5]) and greater than 10000 nM in series [3] (read-out: IC50 (nM) (Receptor binding), Table 12, listed as [Phe^6, E^9, C^24(20kDaPEG)]Glucagon(aa6-29)-NH2).
As for “FTSEYSKYLDSRRAQDFVQWLMNT-NH2 [[Glu^9]Glucagon(aa6-29)-NH2]”, the “cAMP pA2” value in series [2] was 7.16 ± 0.27. Also, the IC50 in series [3] (setting [6]) was found to be 36.4 ± 5.23 nM; in series [3] (read-out: IC50 (nM) receptor binding, Table 9), 36.4 ± 5.23 nM.
For “[K^5(CH2CH2S-20kDaPEG), E^9]Glucagon(aa5-29)-NH2 (K([CH2CH2S-PEG 20 kDa])FTSEYSKYLDSRRAQDFVQWLMNT-NH2)”, the “IC50 (nM) (cAMP, inhibit 0.2 mM Glucagon)” value in series [2] (Table 12) is listed as “no antagonism”. For the same compound, the IC50 in series [3] (setting [5]) was greater than 10000 nM.
In turn, `CSCC[C@H](NC(=O)[C@H](CC(C)C)NC(=O)[C@H](Cc1c[nH]c2ccccc12)NC(=O)[C@H](CCC(N)=O)NC(=O)[C@@H](NC(=O)[C@H](Cc1ccccc1)NC(=O)[C@H](CC(=O)O)NC(=O)[C@H](CCC(N)=O)NC(=O)[C@H](C)NC(=O)[C@H](CCCNC(=N)N)NC(=O)[C@H](CCCNC(=N)N)NC(=O)[C@@H]1CCC(=O)NCCCC[C@H](NC(=O)[C@H](CO)NC(=O)[C@H](Cc2ccc(O)cc2)NC(=O)[C@H](CCC(=O)O)NC(=O)[C@H](CO)NC(=O)[C@@H](NC(=O)[C@@H](N)Cc2ccccc2)[C@@H](C)O)C(=O)N[C@@H](Cc2ccc(O)cc2)C(=O)N[C@@H](CC(C)C)C(=O)N[C@@H](CC(=O)O)C(=O)N1)C(C)C)C(=O)N[C@@H](CC(N)=O)C(=O)N[C@H](C(=O)NCC(=O)N1CCC[C@H]1C(=O)N[C@@H](CO)C(=O)N[C@@H](CO)C(=O)NCC(=O)N[C@@H](C)C(=O)N1CCC[C@H]1C(=O)N1CCC[C@H]1C(=O)N1CCC[C@H]1C(=O)N[C@@H](CO)C(N)=O)[C@@H](C)O` [E9, K12E16(lactam)] (H-FTSEYSKYLDERRAQDFVQWLMNTGPSSGAPPPS-NH2; lactam 7-11; N-terminus assumed) returned an EC50 in series [4] (GLP-1 (nM), Table 13, GLP-1 agonist activity) of 63 nM. In addition, the IC50 in series [2] (Table 13, glucagon antagonist activity, read-out: Glu) turned out to be 2010 nM.
Regarding “GTFTSEYSKYLDSRRAQDFVQWLMNT-NH2 [[Glu^9]Glucagon(aa4-29)-NH2]”, the IC50 turned out to be 136 ± 17.8 nM in series [3] (setting [6]) and 136 nM in series [3] (read-out: Receptor Binding IC50, Table 4).
In turn, `CSCC[C@H](NC(=O)[C@H](CC(C)C)NC(=O)[C@H](Cc1c[nH]c2ccccc12)NC(=O)[C@H](CCC(N)=O)NC(=O)[C@@H](NC(=O)[C@H](Cc1ccccc1)NC(=O)[C@H](CC(=O)O)NC(=O)[C@@H]1CCCCNC(=O)CC[C@H](NC(=O)[C@H](CC(=O)O)NC(=O)[C@H](CC(C)C)NC(=O)[C@H](Cc2ccc(O)cc2)NC(=O)[C@H](CCCCN)NC(=O)[C@H](CO)NC(=O)[C@H](Cc2ccc(O)cc2)NC(=O)[C@H](CC(=O)O)NC(=O)[C@H](CO)NC(=O)[C@@H](NC(=O)[C@H](Cc2ccccc2)OC(=O)[C@@H](NC(=O)CNC(=O)[C@H](CCC(N)=O)NC(=O)[C@@H](N)CO)[C@@H](C)O)[C@@H](C)O)C(=O)N[C@@H](CCCNC(=N)N)C(=O)N[C@@H](CCCNC(=N)N)C(=O)N[C@@H](C)C(=O)N1)C(C)C)C(=O)N[C@@H](CC(=O)O)C(=O)N[C@H](C(N)=O)[C@@H](C)O` [[S2Q3-O-PLA6, D9, E16K20(Lactam), D28] G(2-29)] (H-SQGT[PhLac]TSDYSKYLDERRAKDFVQWLMDT-NH2; lactam 15-19; N-terminus assumed) had a half-maximal effective concentration (EC50) in series [4] (GLP-1 agonism EC50 (nM), Table 20) of 45.7 ± 12.3 nM. The compound further displayed an IC50 in series [2] (Glucagon antagonism IC50 (nM, inhibit 0.8 nM glucagon), Table 24) of 20.8 ± 3.09 nM.
Compound `CSCC[C@H](NC(=O)[C@H](CC(C)C)NC(=O)[C@H](Cc1c[nH]c2ccccc12)NC(=O)[C@H](CCC(N)=O)NC(=O)[C@@H](NC(=O)[C@H](Cc1ccccc1)NC(=O)[C@H](CC(=O)O)NC(=O)[C@H](CCCCN)NC(=O)[C@H](C)NC(=O)[C@H](CCCNC(=N)N)NC(=O)[C@H](CCCNC(=N)N)NC(=O)[C@H](CCC(=O)O)NC(=O)[C@H](CC(=O)O)NC(=O)[C@H](CC(C)C)NC(=O)[C@H](Cc1ccc(O)cc1)NC(=O)[C@H](CCCCN)NC(=O)[C@H](CO)NC(=O)[C@H](Cc1ccc(O)cc1)NC(=O)[C@H](CCC(=O)O)NC(=O)[C@H](CO)NC(=O)[C@@H](NC(=O)[C@@H](N)Cc1ccccc1)[C@@H](C)O)C(C)C)C(=O)N[C@@H](CC(N)=O)C(=O)N[C@H](C(=O)NCC(=O)N1CCC[C@H]1C(=O)N[C@@H](CO)C(=O)N[C@@H](CO)C(=O)NCC(=O)N[C@@H](C)C(=O)N1CCC[C@H]1C(=O)N1CCC[C@H]1C(=O)N1CCC[C@H]1C(=O)N[C@@H](CO)C(N)=O)[C@@H](C)O` [[E9, E16, K20] G(6-39)] returned an EC50 in series [4] (GLP-1 agonism EC50 (nM), Table 16) of 1040 ± 11.9 nM. For the same compound, the “Glucagon antagonism IC50(nM) (inhibit 0.2-0.8 nM glucagon)” value in series [2] (Table 16, combined results of three assays) is listed as “weak agonist”.
